According to ChEMBL document CHEMBL3272243, “Synthesis and biological activity of camel and bovine beta-melanotropins” (1976):

Key:
Type in all cases: functional, Anura
Set-up in all cases: scale not given: the % may be the effect or the level left
Zone of skin [1] = assay: Melanocyte stimulating activity in frog skin assessed as decrease in reflectance at 2.7 to 8.1 ng relative to camel betaC2-MSH
Zone of skin [2] = assay: Melanocyte stimulating activity in frog skin assessed as decrease in reflectance at 2.7 ng relative to control
Zone of skin [3] = assay: Melanocyte stimulating activity in frog skin assessed as decrease in reflectance at 8.1 ng relative to control
Zone of skin [4] = assay: Melanocyte stimulating activity in frog skin assessed as decrease in reflectance at 5.4 ng relative to control
Zone of skin [5] = assay: Melanocyte stimulating activity in frog skin assessed as decrease in reflectance at 1.8 ng relative to control
Zone of skin [6] = assay: Melanocyte stimulating activity in frog skin assessed as decrease in reflectance at 2.7 to 8.1 ng relative to bovine beta-MSH
Zone of skin [7] = assay: Melanocyte stimulating activity in frog skin assessed as decrease in reflectance at 2.3 ng relative to control
Zone of skin [8] = assay: Melanocyte stimulating activity in frog skin assessed as decrease in reflectance at 6.9 ng relative to control

| Substance | Activity (Zone of skin [1]) [%] | Activity (Zone of skin [2]) [%] | Activity (Zone of skin [3]) [%] | Activity (Zone of skin [4]) [%] | Activity (Zone of skin [5]) [%] | Activity (Zone of skin [6]) [%] | Activity (Zone of skin [7]) [%] | Activity (Zone of skin [8]) [%] |
| --- | --- | --- | --- | --- | --- | --- | --- | --- |
| H-DGGPYKMEHFRWGSPPKD-OH | 87.8 | 36.4 | 56.5 | 53 | 28.4 |  |  |  |
| H-DSGPYKMEHFRWGSPPKD-OH | 105.6 | 30.1 | 49.6 |  |  | 120.2 | 29.1 | 44.6 |
